Results published in patent US5578601A, “Nonpeptide bradykinin antagonists” (Sterling Winthrop Inc., priority 1995, dated 1996).
Structures can show the parent of a compound that is named as a salt. Where two headings read alike, the source gives them in different places.

Legend:
[1] = target: T1, bradykinin B2 receptor (Homo sapiens, UniProt P30411); experiment: [3H]-bradykinin radioligand competitive binding to human IMR-90 fetal lung fibroblasts (bradykinin B2 receptor); conditions: human IMR-90 cells, 2 h, 4° C, pH 7.4, mean values from 2-3 experiments
T1 construct: These cells contain the bradykinin B2 receptor as previously described; endogenous in cells; host or cells: human IMR-90 fetal lung fibroblasts
T1 sequence (P30411 1-391): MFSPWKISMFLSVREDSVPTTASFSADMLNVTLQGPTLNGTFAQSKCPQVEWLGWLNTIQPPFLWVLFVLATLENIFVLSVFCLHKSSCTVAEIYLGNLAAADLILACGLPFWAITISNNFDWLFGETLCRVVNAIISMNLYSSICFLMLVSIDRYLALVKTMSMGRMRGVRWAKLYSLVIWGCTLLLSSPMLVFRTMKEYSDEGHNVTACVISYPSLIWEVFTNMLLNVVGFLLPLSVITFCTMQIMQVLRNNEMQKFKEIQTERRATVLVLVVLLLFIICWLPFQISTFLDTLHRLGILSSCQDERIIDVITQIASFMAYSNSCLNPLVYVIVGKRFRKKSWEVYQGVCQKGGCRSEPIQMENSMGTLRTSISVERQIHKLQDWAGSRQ
Procedure: The receptor binding affinity (KI) of the compounds of the present invention was determined in [^3 H]-bradykinin radioligand binding studies using human IMR-90 fetal lung fibroblasts. […] Briefly stated, harvested IMR-90 cells were resuspended to the desired cell concentration in ice cold buffer containing phosphate buffered saline (PBS) pH-7.4, sodium azide (0.02%), 0.1% BSA, PMSF (1 mM), DTT (1 mM), and captopril (1 mM). For competitive inhibition binding studies, cells were incubated with bradykinin (1-2 nM) in the absence or presence of increasing concentrations of competing compound. All assay mixtures were incubated for 2 hours at 4° C. The binding assays were terminated by filtration through Whatman GF/B filters on a Brandel Cell Harvester and the filters were washed with 3×1 ml aliquots of ice cold PBS containing 0.1% BSA. All filters were presoaked in 0.1% polyethylenimine to decrease nonspecific filter binding.

[2] = tested on: inflammation and hyperalgesia; conditions: intraplantar carrageenan; cited from earlier work
[3] = tested on: nociception/hyperalgesia; conditions: several different animal models of nociception/hyperalgesia; cited from earlier work
[4] = tested on: rhinovirus infection; conditions: intranasal, experimentally induced infection; cited from earlier work

Row | Compound | Ki ([1]; read-out: IMR 90 Ki) | further results
1 | CCCC[P+](CCCC)(CCCC)Cc1ccc(NC(=O)C(Cc2ccc(C(=O)c3ccccc3)cc2)NC(=NC2CCCCC2)NC2CCCCC2)cc1 (stereo not shown) [Example 3, Phosphonium, [[4-[[3-(4-benzoylphenyl)-2-[[bis(cyclohexylamino)methylene]amino]-1-oxopropyl]amino]phenyl]methyl]tributyl-, chloride, monohydrochloride] | 5800 nM | –
2 | CCCC[P+](CCCC)(CCCC)Cc1ccc(NC(=O)C(Cc2ccc3ccccc3c2)N=C(NCCC)NCCCc2ccccc2)cc1 (stereo not shown) [Example 10, Phosphonium, tributyl[[4-[[3-(2-naphthalenyl)-1-oxo-2-[[[(3-phenylpropyl)amino](propylamino)methylene]amino]propyl]amino]phenyl]methyl]-, chloride, monohydrochloride] | 1950 nM | –
3 | CCCC[P+](CCCC)(CCCC)Cc1ccc(NC(=O)C(Cc2csc3ccccc23)N=C(NC2CCCCC2)NC2CCCCC2)cc1 (stereo not shown) [Example 13, Phosphonium, [[4-[[3-benzo[b]thien-3-yl-2-[[bis(cyclohexylamino)methylene]amino]-1-oxopropyl]amino]phenyl]methyl]tributyl-, chloride, monohydrochloride] | 430 nM | –
4 | CCCC[P+](CCCC)(CCCC)Cc1cccc(NC(=O)C(Cc2ccc3ccccc3c2)N=C(NC2CCCCC2)NC2CCCCC2)c1 (stereo not shown) [Example 17, Phosphonium, [[3-[[2-[[bis(cyclohexylamino)methylene]amino]-3-(2-naphthalenyl)-1-oxopropyl]amino]phenyl]methyl]tributyl-, chloride, monohydrochloride] | 3000 nM | –
5 | O=C(NC1CN2CCC1CC2)C(Cc1ccc(Cl)cc1)NC(=NC1CCCCC1)NC1CCCCC1 (stereo not drawn) [Example 22, 4-chlorophenylpropanamide, N-1-azabicyclo[2.2.2]oct-3-yl-α-[[bis(cyclohexylamino)methylene]amino]-, dihydrochloride] | – | Ki ([1]; IMR 90 Ki): 2900 nM
6 | O=C(Nc1cccc2cnccc12)C(Cc1ccc2ccccc2c1)N=C(NC1CCCCC1)NC1CCCCC1 (stereo not drawn) [Example 24, 2-Naphthalenepropanamide, α-[[bis(cyclohexylamino)methylene]amino]-N-5-isoquinolinyl-, monohydrochloride] | 2540 nM | –
7 | O=C(NCc1nc2ccccc2[nH]1)C(Cc1ccc2ccccc2c1)N=C(NC1CCCCC1)NC1CCCCC1 (stereo not drawn) [Example 25, 2-Naphthalenepropanamide, N-(1H-benzimidazol-2-ylmethyl)-α-[[bis(cyclohexylamino)methylene]amino]-, monohydrochloride] | 5300 nM | –
8 | NPC-567 | – | antagonism of inflammation and hyperalgesia [2]: antagonized; antinociceptive activity [3]: antinociceptive; beneficial effects on the course of rhinovirus infection [4]: failed to demonstrate beneficial effects
